From patent US8084649B2, “Herbicides” (Syngenta Crop Protection, inc., priority 2007, dated 2011)

test system: Digitaria sanguinalis (DIGSA); test: Pre-emergence herbicidal activity, glasshouse pot test; assay type: in vivo; conditions: Digitaria sanguinalis, 480 h, rate 500 g/ha, evaluated after 20 days, read-out: Pre-emergence activity, DIGSA (100=total damage to plant; 0=no damage to plant)
Protocol: (§1) Monocotyledonous and dicotyledonous test plants were sown in sterilised standard soil in pots. After cultivation for one day (pre-emergence) or after 10 days cultivation (post-emergence) under controlled conditions in a glasshouse, the plants were sprayed with an aqueous spray solution derived from the formulation of the technical active ingredient in 0.6 ml acetone and 45 ml formulation solution containing 10.6% Emulsogen EL (Registry number 61791-12-6), 42.2% N-methylpyrrolidone, 42.2% dipropylene glycol monomethyl ether (Registry number 34590-94-8) and 0.2% X-77 (Registry number 11097-66-8). The test plants were then grown in a greenhouse under optimum conditions until, 14 or 15 days later for post-emergence and 20 days for pre-emergence, the test was evaluated (100=total damage to plant; 0=no damage to plant). Alopecurus myosuroides (ALOMY), Avena fatua (AVEFA), Lolium perenne (LOLPE), Setaria faberi (SETFA), Digitaria sanguinalis (DIGSA), Echinochloa crus-galli (ECHCG) Pre-Emergence Activity

| SMILES | pest or weed control at 500 g/ha |
| --- | --- |
| CCc1cc(C)cc(CC)c1C1=C(O)CC(COCOC)CC1=O (stereo not drawn) [Compound T23] | 100% |
| CCc1cc(C)cc(CC)c1C1=C(O)CC(CC(C)S(=O)(=O)C(C)C)CC1=O (stereo not drawn) [Compound T54] | 100% |

test system: Lolium perenne (LOLPE); test: as above; assay type: in vivo; conditions: Lolium perenne, 480 h, rate 500 g/ha, evaluated after 20 days, read-out: Pre-emergence activity, LOLPE (100=total damage to plant; 0=no damage to plant)
Protocol: as §1

| SMILES | pest or weed control at 500 g/ha |
| --- | --- |
| CCc1cc(C)cc(CC)c1C1=C(O)CC(COCOC)CC1=O (stereo not drawn) [Compound T23] | 80% |
| CCc1cc(C)cc(CC)c1C1=C(O)CC(CC(C)S(=O)(=O)C(C)C)CC1=O (stereo not drawn) [Compound T54] | 100% |

test system: Avena fatua (AVEFA); test: as above; assay type: in vivo; conditions: Avena fatua, 480 h, rate 500 g/ha, evaluated after 20 days, read-out: Pre-emergence activity, AVEFA (100=total damage to plant; 0=no damage to plant)
Protocol: as §1

| SMILES | pest or weed control at 500 g/ha |
| --- | --- |
| CCc1cc(C)cc(CC)c1C1=C(O)CC(COCOC)CC1=O (stereo not drawn) [Compound T23] | 70% |
| CCc1cc(C)cc(CC)c1C1=C(O)CC(CC(C)S(=O)(=O)C(C)C)CC1=O (stereo not drawn) [Compound T54] | 80% |

test system: Echinochloa crus-galli (ECHCG); test: as above; assay type: in vivo; conditions: Echinochloa crus-galli, 480 h, rate 500 g/ha, evaluated after 20 days, read-out: Pre-emergence activity, ECHCG (100=total damage to plant; 0=no damage to plant)
Protocol: as §1

| SMILES | pest or weed control at 500 g/ha |
| --- | --- |
| CCc1cc(C)cc(CC)c1C1=C(O)CC(COCOC)CC1=O (stereo not drawn) [Compound T23] | 100% |
| CCc1cc(C)cc(CC)c1C1=C(O)CC(CC(C)S(=O)(=O)C(C)C)CC1=O (stereo not drawn) [Compound T54] | 100% |

test system: Alopecurus myosuroides (ALOMY); test: as above; assay type: in vivo; conditions: Alopecurus myosuroides, 480 h, rate 500 g/ha, evaluated after 20 days, read-out: Pre-emergence activity, ALOMY (100=total damage to plant; 0=no damage to plant)
Protocol: as §1

| SMILES | pest or weed control at 500 g/ha |
| --- | --- |
| CCc1cc(C)cc(CC)c1C1=C(O)CC(COCOC)CC1=O (stereo not drawn) [Compound T23] | 80% |
| CCc1cc(C)cc(CC)c1C1=C(O)CC(CC(C)S(=O)(=O)C(C)C)CC1=O (stereo not drawn) [Compound T54] | 100% |

test system: Setaria faberi (SETFA); test: as above; assay type: in vivo; conditions: Setaria faberi, 480 h, rate 500 g/ha, evaluated after 20 days, read-out: Pre-emergence activity, SETFA (100=total damage to plant; 0=no damage to plant)
Protocol: as §1

| SMILES | pest or weed control at 500 g/ha |
| --- | --- |
| CCc1cc(C)cc(CC)c1C1=C(O)CC(COCOC)CC1=O (stereo not drawn) [Compound T23] | 70% |
| CCc1cc(C)cc(CC)c1C1=C(O)CC(CC(C)S(=O)(=O)C(C)C)CC1=O (stereo not drawn) [Compound T54] | 80% |

test system: Digitaria sanguinalis (DIGSA); test: Post-emergence herbicidal activity, glasshouse pot test; assay type: in vivo; conditions: Digitaria sanguinalis, rate 125 g/ha, evaluated after 14 or 15 days, read-out: Post-emergence activity, DIGSA (100=total damage to plant; 0=no damage to plant)
Protocol: as §1, with “Post-Emergence” for “Pre-Emergence”

| SMILES | pest or weed control at 125 g/ha |
| --- | --- |
| CCc1cc(C)cc(CC)c1C1=C(O)CC(CC(C)S(=O)(=O)C(C)C)CC1=O (stereo not drawn) [Compound T54] | 70% |

same assay, conditions: Digitaria sanguinalis, rate 500 g/ha, evaluated after 14 or 15 days, read-out: Post-emergence activity, DIGSA (100=total damage to plant; 0=no damage to plant)

| SMILES | pest or weed control at 500 g/ha |
| --- | --- |
| CCc1cc(C)cc(CC)c1C1=C(O)CC(COCOC)CC1=O (stereo not drawn) [Compound T23] | 90% |

test system: Lolium perenne (LOLPE); test: as above; assay type: in vivo; conditions: Lolium perenne, rate 125 g/ha, evaluated after 14 or 15 days, read-out: Post-emergence activity, LOLPE (100=total damage to plant; 0=no damage to plant)
Protocol: as §1, with “Post-Emergence” for “Pre-Emergence”

| SMILES | pest or weed control at 125 g/ha |
| --- | --- |
| CCc1cc(C)cc(CC)c1C1=C(O)CC(CC(C)S(=O)(=O)C(C)C)CC1=O (stereo not drawn) [Compound T54] | 80% |

same assay, conditions: Lolium perenne, rate 500 g/ha, evaluated after 14 or 15 days, read-out: Post-emergence activity, LOLPE (100=total damage to plant; 0=no damage to plant)

| SMILES | pest or weed control at 500 g/ha |
| --- | --- |
| CCc1cc(C)cc(CC)c1C1=C(O)CC(COCOC)CC1=O (stereo not drawn) [Compound T23] | 90% |

test system: Avena fatua (AVEFA); test: as above; assay type: in vivo; conditions: Avena fatua, rate 125 g/ha, evaluated after 14 or 15 days, read-out: Post-emergence activity, AVEFA (100=total damage to plant; 0=no damage to plant)
Protocol: as §1, with “Post-Emergence” for “Pre-Emergence”

| SMILES | pest or weed control at 125 g/ha |
| --- | --- |
| CCc1cc(C)cc(CC)c1C1=C(O)CC(CC(C)S(=O)(=O)C(C)C)CC1=O (stereo not drawn) [Compound T54] | 60% |

same assay, conditions: Avena fatua, rate 500 g/ha, evaluated after 14 or 15 days, read-out: Post-emergence activity, AVEFA (100=total damage to plant; 0=no damage to plant)

| SMILES | pest or weed control at 500 g/ha |
| --- | --- |
| CCc1cc(C)cc(CC)c1C1=C(O)CC(COCOC)CC1=O (stereo not drawn) [Compound T23] | 80% |

test system: Echinochloa crus-galli (ECHCG); test: as above; assay type: in vivo; conditions: Echinochloa crus-galli, rate 125 g/ha, evaluated after 14 or 15 days, read-out: Post-emergence activity, ECHCG (100=total damage to plant; 0=no damage to plant)
Protocol: as §1, with “Post-Emergence” for “Pre-Emergence”

| SMILES | pest or weed control at 125 g/ha |
| --- | --- |
| CCc1cc(C)cc(CC)c1C1=C(O)CC(CC(C)S(=O)(=O)C(C)C)CC1=O (stereo not drawn) [Compound T54] | 80% |

same assay, conditions: Echinochloa crus-galli, rate 500 g/ha, evaluated after 14 or 15 days, read-out: Post-emergence activity, ECHCG (100=total damage to plant; 0=no damage to plant)

| SMILES | pest or weed control at 500 g/ha |
| --- | --- |
| CCc1cc(C)cc(CC)c1C1=C(O)CC(COCOC)CC1=O (stereo not drawn) [Compound T23] | 100% |

test system: Alopecurus myosuroides (ALOMY); test: as above; assay type: in vivo; conditions: Alopecurus myosuroides, rate 125 g/ha, evaluated after 14 or 15 days, read-out: Post-emergence activity, ALOMY (100=total damage to plant; 0=no damage to plant)
Protocol: as §1, with “Post-Emergence” for “Pre-Emergence”

| SMILES | pest or weed control at 125 g/ha |
| --- | --- |
| CCc1cc(C)cc(CC)c1C1=C(O)CC(CC(C)S(=O)(=O)C(C)C)CC1=O (stereo not drawn) [Compound T54] | 80% |

same assay, conditions: Alopecurus myosuroides, rate 500 g/ha, evaluated after 14 or 15 days, read-out: Post-emergence activity, ALOMY (100=total damage to plant; 0=no damage to plant)

| SMILES | pest or weed control at 500 g/ha |
| --- | --- |
| CCc1cc(C)cc(CC)c1C1=C(O)CC(COCOC)CC1=O (stereo not drawn) [Compound T23] | 90% |

test system: Setaria faberi (SETFA); test: as above; assay type: in vivo; conditions: Setaria faberi, rate 125 g/ha, evaluated after 14 or 15 days, read-out: Post-emergence activity, SETFA (100=total damage to plant; 0=no damage to plant)
Protocol: as §1, with “Post-Emergence” for “Pre-Emergence”

| SMILES | pest or weed control at 125 g/ha |
| --- | --- |
| CCc1cc(C)cc(CC)c1C1=C(O)CC(CC(C)S(=O)(=O)C(C)C)CC1=O (stereo not drawn) [Compound T54] | 50% |

same assay, conditions: Setaria faberi, rate 500 g/ha, evaluated after 14 or 15 days, read-out: Post-emergence activity, SETFA (100=total damage to plant; 0=no damage to plant)

| SMILES | pest or weed control at 500 g/ha |
| --- | --- |
| CCc1cc(C)cc(CC)c1C1=C(O)CC(COCOC)CC1=O (stereo not drawn) [Compound T23] | 100% |
